Series [1] concerns sedge, umbrella (small-flower umbrella sedge, Cyperus difformis). Description: Test B flooded paddy test, visual rating. Conditions: Cyperus difformis, 360 h; Flood, 250 g ai/ha, applied to paddy water, rated after 13 to 15 d; read-out: Sedge, Umbrella plant response rating (0 to 100 scale, 0 is no effect, 100 is complete control). Type of series: in vivo. In outline:
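Ratings use a 0-100 visual scale, where 100 is complete control, and compare treated plants with controls after 13 to 15 d of greenhouse growth. Compound went straight into paddy water kept 3 cm over the soil surface, applied to seedlings at the 2-leaf stage.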

Nine compounds from patent US10750743B2, “Pyridazinone herbicides” (E.I. DU PONT DE NEMOURS AND COMPANY, priority 2015, dated 2020) can be followed below.

On to `Cc1cc2ccc(C)c(-c3c(O)c(C)nn(C)c3=O)c2o1` [Compound 10, 4-(2,6-dimethyl-7-benzofuranyl)-5-hydroxy-2,6-dimethyl-3(2H)-pyridazinone], for which the melting point (commonly the temperature, or range, at which the solid turns liquid) was in the range of 194 to 199 °C. Also, the pest or weed control at 250 g/ha in series [1] worked out at 0%. Take `Cn1nc(Cl)c(O)c(-c2nccc3ccccc23)c1=O` [Compound 67, 6-chloro-5-hydroxy-4-(1-isoquinolinyl)-2-methyl-3(2H)-pyridazinone]: in series [1], the pest or weed control at 250 g/ha is 75%.

For the compound `COc1c(C)nn(C)c(=O)c1-c1ccc(F)c2ccoc12` [Compound 69, 4-(4-fluoro-7-benzofuranyl)-5-methoxy-2,6-dimethyl-3(2H)-pyridazinone], the pest or weed control at 250 g/ha in series [1] turned out to be 0%. `Cc1nn(C)c(=O)c(-c2cccc3snc(C)c23)c1O` [Compound 25, 5-hydroxy-2,6-dimethyl-4-(3-methyl-1,2-benzisothiazol-4-yl)-3 (2H)-pyridazinone] yielded a melting point of 115 to 118 °C. For the same compound, the pest or weed control at 250 g/ha in series [1] amounted to 0%. The matching figures for `CC(=O)Oc1c(C)nn(C)c(=O)c1-c1c(C)ccc2cc(C)oc12` [Compound 11, 5-(acetyloxy)-4-(2,6-dimethyl-7-benzofuranyl)-2,6-dimethyl-3(2H)-pyridazinone]: 93 to 96 °C and 0%. The like results for `CCOC(=O)Oc1c(C)nn(C)c(=O)c1-c1c(C)ccc2sccc12` [Compound 30, 1,6-dihydro-1,3-dimethyl-5-(5-methylbenzo[b]thien-4-yl)-6-oxo-4-pyridazinyl ethyl carbonate] were, in that order, 103 to 107 °C and 0%. As for `Cc1cc2cccc(-c3c(O)c(C)nn(C)c3=O)c2o1` [Compound 12, 5-hydroxy-2,6-dimethyl-4-(2-methyl-7-benzofuranyl)-3(2H)-pyridazinone], the pest or weed control at 250 g/ha in series [1] amounted to 0%. The same measure, in the same setting: the result for `Cc1nn(C)c(=O)c(-c2ccc(F)c3ccoc23)c1O` [Compound 68, 4-(4-fluoro-7-benzofuranyl)-5-hydroxy-2,6-dimethyl-3(2H)-pyridazinone] reads 0%; that for `Cc1ccc2sccc2c1-c1c(O)c(C)nn(C)c1=O` [Compound 29, 5-hydroxy-2,6-dimethyl-4-(5-methylbenzo[b]thien-4-yl)-3(2H)-pyridazinone], 0%.
